Laboratory results as given in ChEMBL document CHEMBL3132812, “Metabolism-guided drug design” (Medchemcomm, 2013).
pIC50: −log10 of the molar value.

Experiments:
[1] = Lipophilicity, log D of the compound at pH 7.4; type: physicochemical; conditions: buffer
Trypsin = Trypsin (Homo sapiens, UniProt P07477+P07478+P35030); experiment: Inhibition of trypsin (unknown origin); type: protein assay
Prothrombin = Prothrombin (Homo sapiens, UniProt P00734); experiment: Inhibition of thrombin (unknown origin)
[2] = Drug metabolism in rat liver microsomes assessed as O-demethylation; type: ADME; conditions: read-out: Drug metabolism
[3] = Drug metabolism in rat liver microsomes assessed as N-demethylation; type: ADME; conditions: read-out: Drug metabolism
[4] = Drug metabolism in rat liver microsomes assessed as oxidative deamination; type: ADME; conditions: read-out: Drug metabolism
[5] = Half life in monkey; type: ADME, organism-based, Macaca mulatta; conditions: rhesus monkey, in vivo
Homo sapiens [6] = experiment: In vivo inhibition of CYP2D6 in patient assessed as inhibition of dextromethorphan to dextrorphan conversion at 20 to 40 mg, qd relative to control; type: ADME, organism-based
[7] = Drug metabolism in human; type: ADME, organism-based; conditions: in vivo, read-out: Drug metabolism
Homo sapiens [8] = experiment: In vivo inhibition of CYP2D6 in patient at 20 mg, qd relative to control; type: ADME, organism-based
[9] = Half life in rat; type: ADME, organism-based; conditions: in vivo
[10] = Half life in human plasma at 600 mg, po; type: ADME, organism-based

CNS(=O)(=O)Cc1ccc2[nH]cc(CCN(C)C)c2c1
logD [1]: -1.7

Cc1cnc(NCC(F)(F)c2ccccn2)c(=O)n1CC(=O)NCc1ncccc1F
IC50 (Trypsin): 252 nM

N#Cc1cnc(NCC(F)(F)c2ccccn2)c(=O)n1CC(=O)NCc1ncccc1F
IC50 (Trypsin): 213 nM | pIC50 (Prothrombin): 8.64

Cc1nc(N)ccc1CNC(=O)Cn1c(C)cnc(NCC(F)(F)c2ccccn2)c1=O
IC50 (Trypsin): 800 nM

COc1ccc([C@H]2Cc3c(cccc3C(F)(F)F)N(CCN(C)C)C(=O)[C@H]2OC(C)=O)cc1
metabolised [2]: 8% | metabolised [3]: 31% | metabolised [4]: 53%

CC(c1ccoc1)N(O)C(N)=O (stereo not drawn)
half-life [5]: 3.1 h

[3H]C1([3H])Oc2ccc(OC[C@@H]3CNCC[C@H]3c3ccc(F)cc3)cc2O1
inhibition (INH) (Homo sapiens [6]): 15%

[3H]C([3H])([3H])Oc1ccc(C(CN(C([3H])([3H])[3H])C([3H])([3H])[3H])C2(O)CCCCC2)cc1 (stereo not drawn)
metabolised [7]: 50%

C[C@H](C#Cc1ccc(Oc2ccc(F)cc2)o1)N(O)C(N)=O
half-life [5]: 7.4 h

Cc1nc(N)ccc1CNC(=O)Cn1c(C)cnc(NCCc2ccccc2)c1=O [L-375378]
IC50 (Trypsin): 1800 nM | pIC50 (Prothrombin): 9.10

Fc1ccc([C@@H]2CCNC[C@H]2COc2ccc3c(c2)OCO3)cc1 [PAROXETINE]
inhibition (INH) (Homo sapiens [8]): 55%

CS(=O)(=O)c1ccc(-n2nc(C(F)(F)F)cc2-c2ccc(F)cc2)cc1 [SC-58125]
half-life [9]: > 220 h

CC(c1cc2ccccc2s1)N(O)C(N)=O (stereo not drawn) [ZILEUTON]
half-life [10]: 3 h | half-life [5]: < 1 h
